Legend:
[1] = Apparent permeability coefficient, Papp in MDCK cells; type: ADME, cell-based, Canis lupus familiaris; conditions: dog
KMS-11 = assay: Antiproliferative activity against human KMS-11 cells assessed as inhibition of cell growth incubated for 6 days by CCK-8 assay; type: functional, cell-based; conditions: KMS-11, 144 h
[2] = target: T1, Histone-lysine N-methyltransferase NSD2 (Homo sapiens, UniProt O96028); assay: Inhibition of recombinant human NSD2 (941 to 1240 residues) using SAM as substrate incubated for 3 hrs by AlphaLISA assay
T1 sequence (O96028 whole entry): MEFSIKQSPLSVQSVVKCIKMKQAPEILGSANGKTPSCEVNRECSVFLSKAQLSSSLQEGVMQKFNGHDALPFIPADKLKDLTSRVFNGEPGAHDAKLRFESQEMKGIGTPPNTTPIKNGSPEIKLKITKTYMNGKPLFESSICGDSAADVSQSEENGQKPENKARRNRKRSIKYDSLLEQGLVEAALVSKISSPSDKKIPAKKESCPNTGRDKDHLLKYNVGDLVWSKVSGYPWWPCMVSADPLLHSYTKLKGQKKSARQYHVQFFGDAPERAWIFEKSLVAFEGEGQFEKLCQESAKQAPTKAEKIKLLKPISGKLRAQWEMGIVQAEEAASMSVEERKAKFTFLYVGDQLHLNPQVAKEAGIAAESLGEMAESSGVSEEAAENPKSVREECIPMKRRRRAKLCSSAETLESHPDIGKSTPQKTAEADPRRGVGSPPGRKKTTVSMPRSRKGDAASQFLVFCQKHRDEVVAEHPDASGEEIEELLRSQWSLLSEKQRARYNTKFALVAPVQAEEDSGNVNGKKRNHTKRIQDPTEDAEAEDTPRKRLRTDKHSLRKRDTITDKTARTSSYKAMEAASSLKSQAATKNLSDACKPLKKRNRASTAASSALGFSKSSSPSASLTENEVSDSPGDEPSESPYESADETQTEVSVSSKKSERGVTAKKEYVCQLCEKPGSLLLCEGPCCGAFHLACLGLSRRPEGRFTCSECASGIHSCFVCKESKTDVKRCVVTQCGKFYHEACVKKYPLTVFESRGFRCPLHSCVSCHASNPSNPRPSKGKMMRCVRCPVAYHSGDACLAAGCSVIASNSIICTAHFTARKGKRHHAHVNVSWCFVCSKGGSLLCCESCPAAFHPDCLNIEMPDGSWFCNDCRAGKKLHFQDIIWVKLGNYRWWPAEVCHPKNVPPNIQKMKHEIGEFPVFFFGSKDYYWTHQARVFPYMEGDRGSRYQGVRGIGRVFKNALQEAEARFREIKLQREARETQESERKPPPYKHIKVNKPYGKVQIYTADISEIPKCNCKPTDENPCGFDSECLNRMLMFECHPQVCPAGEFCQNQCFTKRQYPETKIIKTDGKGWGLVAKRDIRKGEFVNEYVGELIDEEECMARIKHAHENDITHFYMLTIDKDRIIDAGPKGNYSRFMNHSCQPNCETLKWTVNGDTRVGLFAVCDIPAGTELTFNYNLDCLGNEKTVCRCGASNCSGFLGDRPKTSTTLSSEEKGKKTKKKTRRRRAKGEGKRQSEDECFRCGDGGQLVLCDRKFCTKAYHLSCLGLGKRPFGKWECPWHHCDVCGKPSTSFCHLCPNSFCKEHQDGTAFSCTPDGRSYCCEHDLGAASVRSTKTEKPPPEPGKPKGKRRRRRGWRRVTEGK

[3] = target: Histone-lysine N-methyltransferase EZH2 (Homo sapiens, UniProt Q15910); assay: Inhibition of EZH2 (unknown origin) using SAM as substrate preincubated for 10 mins followed by substrate addition and measured after 4 hrs by HTRF analysis
[4] = target: T1, Histone-lysine N-methyltransferase NSD2; assay: Inhibition of human NSD2 SET domain-mediated H3K36 methylation using histone H3 as substrate by colorimetric analysis
[5] = Half life in ICR mouse at 3 mg/kg, po measured for 24 hrs by LC-MS/MS analysis; type: ADME, organism-based; conditions: in vivo
[6] = AUClast in ICR mouse at 3 mg/kg, po measured for 24 hrs by LC-MS/MS analysis; type: ADME, organism-based; design: dose 3 mg/kg, time 24 hrs, route po; conditions: in vivo
[7] = target: Histone-lysine N-methyltransferase NSD3 (Homo sapiens, UniProt Q9BZ95); assay: Inhibition of NSD3 (unknown origin)
[8] = target: T1, Histone-lysine N-methyltransferase NSD2; assay: Inhibition of N-terminal polyhistidine tagged human recombinant NSD2 SET domain (934 to 1241 residues) expressed in Escherichia coli using SAM as substrate preincubated for 30 mins followed by substrate addition and measured after 15 mins by MTase-Glo assay
[9] = Tmax in ICR mouse at 3 mg/kg, po measured for 24 hrs by LC-MS/MS analysis; type: ADME, organism-based; conditions: in vivo
[10] = Cmax in ICR mouse at 3 mg/kg, po measured for 24 hrs by LC-MS/MS analysis; type: ADME, organism-based; design: dose 3 mg/kg, time 24 hrs, route po; conditions: in vivo
[11] = target: Histone-lysine N-methyltransferase, H3 lysine-36 specific (Homo sapiens, UniProt Q96L73); assay: Inhibition of NSD1 (unknown origin)
[12] = target: T1, Histone-lysine N-methyltransferase NSD2; assay: Inhibition of human MMSET (973 to 1203 residues) expressed in Escherichia coli BL21 (DE3) using S-adenosyl-methionine as substrate incubated for 60 mins by AlphaScreen assay
[13] = AUClast in ICR mouse at 1 mg/kg, iv measured for 24 hrs by LC-MS/MS analysis; type: ADME, organism-based; design: dose 1 mg/kg, time 24 hrs, route iv; conditions: in vivo
[14] = Observed clearance in ICR mouse at 1 mg/kg, iv measured for 24 hrs by LC-MS/MS analysis; type: ADME, organism-based; conditions: in vivo
[15] = Oral bioavailability in ICR mouse at 3 mg/kg measured for 24 hrs by LC-MS/MS analysis; type: ADME, organism-based; conditions: in vivo
[16] = Half life in ICR mouse at 1 mg/kg, iv measured for 24 hrs by LC-MS/MS analysis; type: ADME, organism-based; conditions: in vivo
[17] = target: T1, Histone-lysine N-methyltransferase NSD2; assay: Inhibition of human NSD2 (934 to 1241 residues) expressed in Escherichia coli BL21 (DE3) using [3H]-SAM as substrate incubated for 1 hr by TopCount radioactivity counter
[18] = target: T1, Histone-lysine N-methyltransferase NSD2; assay: Competitive inhibition of NSD2 (unknown origin) using SAM as substrate
[19] = target: T1, Histone-lysine N-methyltransferase NSD2; assay: Inhibition of human NSD2 SET domain (948 to 1239 residues)-mediated mono-methylation activity assessed as reduction in H3K36me1 level incubated for 1 hr

Chain of Histone-lysine N-methyltransferase, H3 lysine-36 specific (Q96L73 whole entry, the tested form may be a part): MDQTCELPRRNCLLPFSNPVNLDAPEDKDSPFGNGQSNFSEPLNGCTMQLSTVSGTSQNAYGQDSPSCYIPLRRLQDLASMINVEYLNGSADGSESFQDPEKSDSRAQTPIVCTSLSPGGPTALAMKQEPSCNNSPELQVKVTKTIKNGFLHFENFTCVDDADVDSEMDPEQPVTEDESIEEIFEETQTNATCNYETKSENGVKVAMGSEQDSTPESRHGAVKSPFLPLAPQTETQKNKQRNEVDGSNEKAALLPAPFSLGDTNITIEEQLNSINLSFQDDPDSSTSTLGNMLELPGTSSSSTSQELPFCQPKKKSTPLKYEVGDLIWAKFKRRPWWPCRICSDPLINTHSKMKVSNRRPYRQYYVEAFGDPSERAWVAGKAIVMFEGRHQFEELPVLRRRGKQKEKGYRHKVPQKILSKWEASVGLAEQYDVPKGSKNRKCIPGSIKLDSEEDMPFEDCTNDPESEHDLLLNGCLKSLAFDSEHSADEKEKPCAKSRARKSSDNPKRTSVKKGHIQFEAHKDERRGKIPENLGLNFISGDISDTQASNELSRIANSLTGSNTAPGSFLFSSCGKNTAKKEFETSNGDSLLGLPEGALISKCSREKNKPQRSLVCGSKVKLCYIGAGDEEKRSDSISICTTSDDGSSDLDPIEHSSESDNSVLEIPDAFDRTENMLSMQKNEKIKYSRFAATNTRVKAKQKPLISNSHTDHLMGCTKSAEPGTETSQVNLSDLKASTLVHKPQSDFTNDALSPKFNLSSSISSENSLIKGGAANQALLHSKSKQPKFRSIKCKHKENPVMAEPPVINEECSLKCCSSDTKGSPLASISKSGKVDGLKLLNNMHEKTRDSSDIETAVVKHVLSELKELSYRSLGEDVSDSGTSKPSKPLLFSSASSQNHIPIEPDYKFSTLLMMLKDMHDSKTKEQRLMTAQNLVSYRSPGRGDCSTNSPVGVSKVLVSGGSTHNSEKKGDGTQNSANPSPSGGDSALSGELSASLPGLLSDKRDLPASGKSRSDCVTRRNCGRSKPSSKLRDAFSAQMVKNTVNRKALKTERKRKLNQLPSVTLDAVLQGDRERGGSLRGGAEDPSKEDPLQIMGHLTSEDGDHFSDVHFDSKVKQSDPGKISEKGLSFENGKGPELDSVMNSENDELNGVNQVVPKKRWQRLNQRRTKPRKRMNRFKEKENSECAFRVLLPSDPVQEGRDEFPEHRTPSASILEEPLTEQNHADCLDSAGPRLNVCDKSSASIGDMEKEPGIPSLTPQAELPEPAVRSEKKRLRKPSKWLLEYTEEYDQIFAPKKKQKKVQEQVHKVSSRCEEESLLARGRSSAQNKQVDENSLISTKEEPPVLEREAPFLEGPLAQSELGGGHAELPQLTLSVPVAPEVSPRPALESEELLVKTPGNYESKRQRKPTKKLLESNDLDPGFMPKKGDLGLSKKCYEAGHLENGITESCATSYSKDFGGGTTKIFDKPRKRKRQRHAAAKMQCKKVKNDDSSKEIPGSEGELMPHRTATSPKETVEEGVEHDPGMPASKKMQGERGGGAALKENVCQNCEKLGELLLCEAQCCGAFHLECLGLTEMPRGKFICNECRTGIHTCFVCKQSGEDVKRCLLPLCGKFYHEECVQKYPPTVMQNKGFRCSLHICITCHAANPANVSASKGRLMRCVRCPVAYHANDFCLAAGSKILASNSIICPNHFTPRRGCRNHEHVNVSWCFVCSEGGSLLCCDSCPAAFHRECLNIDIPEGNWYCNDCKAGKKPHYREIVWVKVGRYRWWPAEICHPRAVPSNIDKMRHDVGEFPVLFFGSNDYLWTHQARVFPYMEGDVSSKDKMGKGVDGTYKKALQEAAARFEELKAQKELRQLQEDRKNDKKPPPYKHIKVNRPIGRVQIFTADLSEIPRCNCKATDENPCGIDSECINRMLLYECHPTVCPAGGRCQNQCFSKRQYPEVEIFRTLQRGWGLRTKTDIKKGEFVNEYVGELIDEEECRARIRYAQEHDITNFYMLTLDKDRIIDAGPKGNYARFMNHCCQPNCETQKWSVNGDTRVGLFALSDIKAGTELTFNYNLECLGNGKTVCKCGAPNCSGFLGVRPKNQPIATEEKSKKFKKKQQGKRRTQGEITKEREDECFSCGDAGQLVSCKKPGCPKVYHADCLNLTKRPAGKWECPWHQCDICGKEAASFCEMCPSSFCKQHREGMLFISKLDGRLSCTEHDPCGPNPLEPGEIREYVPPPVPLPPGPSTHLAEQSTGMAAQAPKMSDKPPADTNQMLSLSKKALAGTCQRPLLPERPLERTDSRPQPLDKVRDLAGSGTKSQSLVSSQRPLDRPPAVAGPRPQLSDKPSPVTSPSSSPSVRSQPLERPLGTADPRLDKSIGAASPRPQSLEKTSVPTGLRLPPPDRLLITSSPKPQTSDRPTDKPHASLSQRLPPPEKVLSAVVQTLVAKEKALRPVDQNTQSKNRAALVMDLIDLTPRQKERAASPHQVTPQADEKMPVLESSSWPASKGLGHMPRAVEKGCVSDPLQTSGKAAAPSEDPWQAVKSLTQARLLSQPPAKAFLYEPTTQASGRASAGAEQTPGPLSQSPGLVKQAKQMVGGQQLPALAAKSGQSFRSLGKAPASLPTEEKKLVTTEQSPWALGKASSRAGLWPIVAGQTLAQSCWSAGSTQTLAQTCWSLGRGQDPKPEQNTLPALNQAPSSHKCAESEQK
Chain of Histone-lysine N-methyltransferase NSD3 (Q9BZ95 whole entry, the tested form may be a part): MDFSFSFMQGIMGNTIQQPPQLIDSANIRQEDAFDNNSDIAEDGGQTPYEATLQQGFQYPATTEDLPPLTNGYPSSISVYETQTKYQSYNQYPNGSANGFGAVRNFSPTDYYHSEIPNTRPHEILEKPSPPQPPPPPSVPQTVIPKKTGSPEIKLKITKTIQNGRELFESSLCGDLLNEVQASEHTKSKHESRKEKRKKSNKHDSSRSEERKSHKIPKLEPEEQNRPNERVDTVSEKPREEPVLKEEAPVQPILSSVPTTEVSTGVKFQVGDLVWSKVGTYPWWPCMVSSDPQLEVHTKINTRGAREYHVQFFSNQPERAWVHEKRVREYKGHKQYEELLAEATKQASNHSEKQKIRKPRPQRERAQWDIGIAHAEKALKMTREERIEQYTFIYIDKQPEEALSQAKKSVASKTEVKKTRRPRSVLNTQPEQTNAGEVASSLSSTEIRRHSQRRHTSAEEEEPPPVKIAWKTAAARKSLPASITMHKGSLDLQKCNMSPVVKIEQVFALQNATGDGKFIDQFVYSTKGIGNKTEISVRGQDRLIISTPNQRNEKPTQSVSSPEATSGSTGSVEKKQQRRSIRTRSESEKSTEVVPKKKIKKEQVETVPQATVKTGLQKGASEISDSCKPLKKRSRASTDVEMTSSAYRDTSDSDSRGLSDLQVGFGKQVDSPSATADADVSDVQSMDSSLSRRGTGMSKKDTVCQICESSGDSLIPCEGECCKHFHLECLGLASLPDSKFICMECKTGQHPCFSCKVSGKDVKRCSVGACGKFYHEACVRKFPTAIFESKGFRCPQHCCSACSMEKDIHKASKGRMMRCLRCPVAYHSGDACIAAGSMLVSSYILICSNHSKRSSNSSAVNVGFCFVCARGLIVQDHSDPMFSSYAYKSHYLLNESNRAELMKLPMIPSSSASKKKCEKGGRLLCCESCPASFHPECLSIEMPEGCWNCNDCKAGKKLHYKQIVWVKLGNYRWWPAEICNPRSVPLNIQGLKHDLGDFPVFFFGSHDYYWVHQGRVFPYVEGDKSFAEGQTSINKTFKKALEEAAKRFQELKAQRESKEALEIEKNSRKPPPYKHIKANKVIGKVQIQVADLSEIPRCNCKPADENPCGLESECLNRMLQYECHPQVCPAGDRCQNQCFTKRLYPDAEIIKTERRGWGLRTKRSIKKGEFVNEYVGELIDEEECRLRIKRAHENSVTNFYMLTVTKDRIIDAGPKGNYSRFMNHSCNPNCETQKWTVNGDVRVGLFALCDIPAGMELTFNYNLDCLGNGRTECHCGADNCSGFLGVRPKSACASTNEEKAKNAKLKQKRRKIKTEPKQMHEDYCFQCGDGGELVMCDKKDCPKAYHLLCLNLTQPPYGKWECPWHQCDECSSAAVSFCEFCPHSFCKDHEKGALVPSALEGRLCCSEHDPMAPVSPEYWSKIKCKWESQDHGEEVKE
Chain of Histone-lysine N-methyltransferase EZH2 (Q15910 whole entry, the tested form may be a part): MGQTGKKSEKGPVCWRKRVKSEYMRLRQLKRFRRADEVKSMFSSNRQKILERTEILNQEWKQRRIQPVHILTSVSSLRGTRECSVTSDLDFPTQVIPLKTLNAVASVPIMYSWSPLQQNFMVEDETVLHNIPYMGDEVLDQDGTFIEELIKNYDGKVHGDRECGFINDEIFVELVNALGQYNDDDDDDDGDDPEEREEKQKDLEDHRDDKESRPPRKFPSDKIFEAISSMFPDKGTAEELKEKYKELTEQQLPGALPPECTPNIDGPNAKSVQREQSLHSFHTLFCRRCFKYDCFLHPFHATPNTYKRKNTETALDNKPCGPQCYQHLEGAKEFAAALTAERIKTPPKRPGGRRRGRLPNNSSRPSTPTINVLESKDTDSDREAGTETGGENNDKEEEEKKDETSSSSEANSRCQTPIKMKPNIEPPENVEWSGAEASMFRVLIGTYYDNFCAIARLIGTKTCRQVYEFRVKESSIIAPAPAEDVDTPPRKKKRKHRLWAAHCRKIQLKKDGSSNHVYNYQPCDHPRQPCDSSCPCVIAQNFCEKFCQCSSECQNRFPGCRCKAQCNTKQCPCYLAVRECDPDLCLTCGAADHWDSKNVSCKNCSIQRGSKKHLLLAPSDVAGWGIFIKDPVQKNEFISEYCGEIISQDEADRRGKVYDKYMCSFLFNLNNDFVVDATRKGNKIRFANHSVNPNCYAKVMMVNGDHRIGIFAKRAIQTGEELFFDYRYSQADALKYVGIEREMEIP

CC(C)(O)[C@H](F)CNC1=C(Cl)C(=O)c2ccc(Cl)nc2C1=O
Papp [1]: 29 ×10⁻⁶ cm/s | IC50 (KMS-11): 6070 nM | IC50 [2]: 250 nM

CCN(c1cc(-c2ccc(CN3CCOCC3)cc2)cc(C(=O)NCc2c(C)cc(C)[nH]c2=O)c1C)C1CCOCC1 [TAZEMETOSTAT]
IC50 (KMS-11): > 20000 nM

CC(C)(O)[C@H](F)CNC1=C(Cl)C(=O)c2ncccc2C1=O
IC50 [2]: 1310 nM

C[C@@](O)(C(=O)N1CCC(O)(CCNC2=C(Cl)C(=O)c3ncccc3C2=O)CC1)C(F)(F)F
IC50 [2]: 990 nM

CC(F)(F)C(=O)NC12CC(NC3=C(Cl)C(=O)c4cccnc4C3=O)(C1)C2
Papp [1]: 44.4 ×10⁻⁶ cm/s | IC50 (KMS-11): 2400 nM | IC50 [2]: 300 nM

CC#CC(=O)NCCC1CCN(C2=C(Cl)C(=O)c3ncccc3C2=O)CC1
IC50 [2]: 490 nM

CC(F)(F)C(=O)NCCC1CN(C2=C(Cl)C(=O)c3ncccc3C2=O)C1
IC50 [2]: 380 nM

CC(C)(O)[C@H](F)CNC1=C(Cl)C(=O)c2ccc(N3CCC(F)(F)C3)nc2C1=O
IC50 [2]: 930 nM

O=C1C(Cl)=C(NCCC2(O)CCN(C(=O)C3CC3(F)F)CC2)C(=O)c2ncccc21 (stereo not drawn)
Papp [1]: 21.5 ×10⁻⁶ cm/s | IC50 (KMS-11): 3940 nM | IC50 [2]: 200 nM

CC(F)(F)C(=O)N1CCC2(CC1)CN(C1=C(Cl)C(=O)c3ncccc3C1=O)C2
IC50 [2]: 3050 nM

CC#CC(=O)NC12CC(NC3=C(Cl)C(=O)c4cccnc4C3=O)(C1)C2
Papp [1]: 42 ×10⁻⁶ cm/s | IC50 (KMS-11): 2210 nM | IC50 [3]: 1040 nM | IC50 [2]: 250 nM

CC(C)(O)[C@H](F)CNC1=C(Cl)C(=O)c2ccc(N3C[C@@H](O)[C@H](O)C3)nc2C1=O
IC50 [2]: 1220 nM

O=C1C(NCCc2c[nH]c3ccccc23)=C(Cl)C(=O)c2ncccc21
IC50 [2]: 2290 nM

O=C1O[C@@H](C(=O)N2CCN(Cc3nc4sc5c(c4c(=O)[nH]3)CCCC5)CC2)Cc2ccccc21
IC50 [4]: 132000 nM

O=C1C(Cl)=C(NCCN2CCOCC2)C(=O)c2ncccc21
half-life [5]: 34.2 min | AUC(0-t) at 24 h [6]: 14.5 ng·h/mL | IC50 [7]: 340 nM | IC50 [8]: 170 nM | Tmax [9]: 19.8 min | Cmax [10]: 21.1 ng/mL | Papp [1]: 31.2 ×10⁻⁶ cm/s | IC50 (KMS-11): 1430 nM | IC50 [11]: 150 nM | IC50 [2]: 230 nM

CC(C)(O)[C@H](F)CNC1=C(Cl)C(=O)c2cccnc2C1=O
Papp [1]: 30.8 ×10⁻⁶ cm/s | IC50 (KMS-11): 1680 nM | IC50 [2]: 300 nM

CC#CC(=O)NC1CN(C2=C(Cl)C(=O)c3cccnc3C2=O)C1
IC50 [2]: 310 nM

CC(C)(O)[C@H](F)CNC1=C(Cl)C(=O)c2ccc(N3CCCC3)nc2C1=O
IC50 [2]: 360 nM

C[C@@](O)(C(=O)NC12CC(NC3=C(Cl)C(=O)c4cccnc4C3=O)(C1)C2)C(F)(F)F
IC50 [2]: 420 nM

CC(F)(F)C(=O)N1CCC2(CC1)CN(C1=C(Cl)C(=O)c3cccnc3C1=O)C2
IC50 [2]: 330 nM

CCCN[C@@H](CC[C@H](N)C(=O)O)C[C@H]1O[C@@H](n2cnc3c(N)ncnc32)[C@H](O)[C@@H]1O
IC50 [12]: 3300 nM

O=C1C(Cl)=C(NC2CCc3ccccc32)C(=O)c2ncccc21 (stereo not drawn)
Papp [1]: 28.8 ×10⁻⁶ cm/s | IC50 (KMS-11): 2520 nM | IC50 [2]: 210 nM

CC(C)(O)[C@H](F)CNC1=C(Cl)C(=O)c2ccc(N3CC(O)C3)nc2C1=O
IC50 [2]: > 10000 nM

CC(F)(F)C(=O)NC12CC(NC3=C(Cl)C(=O)c4ncccc4C3=O)(C1)C2
AUC(0-t) at 24 h [13]: 476 ng·h/mL | half-life [5]: 307 min | AUC(0-t) at 24 h [6]: 758 ng·h/mL | clearance [14]: 33.4 mL/min/kg | Tmax [9]: 25.2 min | Cmax [10]: 707 ng/mL | Papp [1]: 49.4 ×10⁻⁶ cm/s | IC50 (KMS-11): 350 nM | bioavailability [15]: 53.1% | half-life [16]: 115 min | IC50 [2]: 330 nM

O=C1C(Cl)=C(NC23CC(NC(=O)C4CC4(F)F)(C2)C3)C(=O)c2ncccc21 (stereo not drawn)
IC50 [2]: 410 nM

CC(F)(F)C(=O)NC1CN(C2=C(Cl)C(=O)c3cccnc3C2=O)C1
IC50 [2]: 470 nM

C[C@@](O)(C(=O)NC12CC(NC3=CC(=O)c4ncccc4C3=O)(C1)C2)C(F)(F)F
IC50 [2]: 1290 nM

CC(F)(F)C(=O)NCCC1CN(C2=C(Cl)C(=O)c3cccnc3C2=O)C1
IC50 [2]: 380 nM

O=C1C(Cl)=C(NCCc2c[nH]c3ccccc23)C(=O)c2ncccc21
IC50 [2]: 450 nM

O=C1C(NCCN2CCOCC2)=C(Cl)C(=O)c2ncccc21
IC50 [2]: 490 nM

CC(F)(F)C(=O)NC1CN(C2=C(Cl)C(=O)c3ncccc3C2=O)C1
IC50 [2]: 360 nM

CC(F)(F)C(=O)NCCC1CCN(C2=C(Cl)C(=O)c3ncccc3C2=O)CC1
IC50 [2]: 1350 nM

Nc1ncnc2c1ncn2[C@@H]1O[C@H](C[C@@H](N)CC[C@H](N)C(=O)O)[C@@H](O)[C@H]1O [SINEFUNGIN]
IC50 [17]: 79000 nM

NNc1nc2ccccc2nc1S
IC50 [18]: < 3000 nM

CC#CC(=O)NCCC1CCN(C2=C(Cl)C(=O)c3cccnc3C2=O)CC1
IC50 [2]: 1710 nM

COc1cc2nc(N3CCCN(C)CC3)nc(NC3CCN(Cc4ccccc4)CC3)c2cc1OC
IC50 [19]: 41000 nM

CC#CC(=O)NC1CN(C2=C(Cl)C(=O)c3ncccc3C2=O)C1
IC50 [2]: 590 nM

O=C1C(NC23CC(NC(=O)C4CC4(F)F)(C2)C3)=C(Cl)C(=O)c2ncccc21 (stereo not drawn)
IC50 [2]: 1460 nM

CC#CC(=O)N1CCC2(CC1)CN(C1=C(Cl)C(=O)c3ncccc3C1=O)C2
IC50 [2]: 2480 nM

C[C@@](O)(C(=O)N1CCC(O)(CCNC2=C(Cl)C(=O)c3cccnc3C2=O)CC1)C(F)(F)F
Papp [1]: 17.8 ×10⁻⁶ cm/s | IC50 (KMS-11): 8100 nM | IC50 [2]: 240 nM

CC#CC(=O)N1CCC2(CC1)CN(C1=C(Cl)C(=O)c3cccnc3C1=O)C2
IC50 [2]: 760 nM

CC(F)(F)C(=O)NCCC1CCN(C2=C(Cl)C(=O)c3cccnc3C2=O)CC1
IC50 [2]: 2340 nM

O=C1C(NCCC2(O)CCN(C(=O)C3CC3(F)F)CC2)=C(Cl)C(=O)c2ncccc21 (stereo not drawn)
IC50 [2]: 1280 nM

O=C1C(NC2CCc3ccccc32)=C(Cl)C(=O)c2ncccc21 (stereo not drawn)
IC50 [2]: 450 nM

Reference: ChEMBL document CHEMBL5316318, “Structural Modification and Pharmacological Evaluation of Substituted Quinoline-5,8-diones as Potent NSD2 Inhibitors” (J Med Chem, 2023)
